Test results from PubChem BioAssay (NCI).
Values joined by “and” are separate entries in the source; they are usually repeats but may differ in a detail not shown here. Identical values can stand only once.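 96-well plates; 48 h exposure; 5 concentrations. Endpoints by linear interpolation between flanking doses. Not reached: highest tested concentration assigned. GI50 = concentration required for 50% inhibition of growth. TGI is the concentration that stops growth completely.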

How the values were obtained:
Assay in all cases: NCI-60 cell line screen, 48 h; in the data active means GI50 below about 0.43 µM; inactive means the rest
[1] = test system: SR leukemia
[2] = test system: UACC-257 melanoma
[3] = test system: UACC-62 melanoma
[4] = test system: M14 melanoma
[5] = test system: ACHN renal
[6] = test system: SK-OV-3 ovarian
[7] = test system: SF-539 CNS
[8] = test system: HOP-92 NSCLC
[9] = test system: LOX IMVI melanoma
[10] = test system: MDA-MB-435

CCCCN=C(NC#N)NCCCC
> 100 µM: TGI [1] | TGI [2] | TGI [3] | TGI [4] | TGI [5] | TGI [6] | TGI [7] | TGI [8]

O=C(c1ccccc1)c1nnc(C(=O)c2ccccc2)nn1
> 344 µM: TGI [2] | TGI [3] | TGI [4] | TGI [5] | TGI [6] | TGI [7] | TGI [8] | TGI [9]
128 µM: TGI [1]

Cc1cccc(C)c1NC(=O)C(=O)C1C(=O)NC(=O)NC1=O
> 100 µM: TGI [1] | TGI [2] | TGI [3] | TGI [4] | TGI [5] | TGI [6] | TGI [7] | TGI [8] | TGI [9]

COC(=O)/C(=N/NC(=O)C[N+](C)(C)C)C(C(=O)OC)C(=O)C(=O)Nc1ccc(F)cc1 (stereo not drawn)
> 100 µM: TGI [1] | TGI [2] | TGI [3] | TGI [4] | TGI [5] | TGI [6] | TGI [7] | TGI [9]

CCC[CH2][Sn]1([CH2]CCC)[O]Cc2nc(C)ccc2[O]1
3.97 µM: TGI [9]
12.7 µM: TGI [1]
24.4 µM: TGI [5]
19.2 µM: TGI [8]
20.2 µM: TGI [2]
23.5 µM: TGI [4]
inactive: GI50 [1] 2.95 µM | GI50 [2] 5.6 µM | GI50 [3] 2.06 µM | GI50 [4] 10.9 µM | GI50 [5] 12 µM | GI50 [6] 15.8 µM | GI50 [7] 12.1 µM | GI50 [8] 2.52 µM | GI50 [9] 1.95 µM
29.7 µM: TGI [6]
4.57 µM: TGI [3]
24.5 µM: TGI [7]

Cc1ccc2c(c1)[n+]([O-])c(N)n[n+]2[O-]
> 100 µM: TGI [1] | TGI [2] | TGI [4] | TGI [10] | TGI [5] | TGI [6] | TGI [7] | TGI [9]

CS(=O)(=O)c1ccc([C@H]2O[C@@H](CO)C[C@]2(O)c2ccc(S(C)(=O)=O)cc2)cc1
> 100 µM: TGI [1] | TGI [2] | TGI [3] | TGI [10] | TGI [5] | TGI [6] | TGI [7] | TGI [8] | TGI [9]
inactive: GI50 [1] > 100 µM | GI50 [2] > 100 µM | GI50 [3] > 100 µM | GI50 [10] > 100 µM | GI50 [5] > 100 µM | GI50 [6] > 100 µM | GI50 [7] > 100 µM | GI50 [8] > 100 µM | GI50 [9] > 100 µM

CC[C@@H]1C(=O)N(C)c2cnc(Nc3ccc(C(=O)NC4CCN(C)CC4)cc3OC)nc2N1C1CCCC1
> 5.26 µM and 1.98 µM: TGI [2]
1.33 µM and 1.53 µM: TGI [9]
0.352 µM and 0.583 µM: TGI [7]
> 5.11 µM and 2.24 µM: TGI [5]
> 4.22 µM and 2.37 µM: TGI [4]
0.903 µM and 0.103 µM: GI50 [2]
0.593 µM and 0.128 µM: TGI [6]
> 4.41 µM and 4.21 µM: TGI [3]
0.563 µM and 2.36 µM: TGI [8]
active: GI50 [1] 0.00182 µM and < 0.01 µM | GI50 [3] 0.0101 µM and 0.0252 µM | GI50 [4] 0.00384 µM and < 0.01 µM | GI50 [5] 0.148 µM and 0.0895 µM | GI50 [6] 0.00746 µM and < 0.01 µM | GI50 [7] 0.0269 µM and 0.0238 µM | GI50 [8] 0.0125 µM and 0.0149 µM | GI50 [9] 0.00414 µM and < 0.01 µM

N#Cc1ccc(NC(=O)Nc2ccc(Oc3ccc(NC(=O)Nc4ccc(C#N)cc4)cc3)cc2)cc1
62.7 µM: TGI [8]
59.4 µM: TGI [7]
> 100 µM: TGI [2] | TGI [3] | TGI [4] | TGI [10] | TGI [5] | TGI [9]
46.3 µM: TGI [6]
inactive: GI50 [2] 29.1 µM | GI50 [3] 11.1 µM | GI50 [4] 28.3 µM | GI50 [10] 17.1 µM | GI50 [5] 18.8 µM | GI50 [6] 11.1 µM | GI50 [7] 17.6 µM | GI50 [8] 13.3 µM | GI50 [9] 15.7 µM
